Patent publication US9440982B2 (Eolas Therapeutics, Inc., priority 2012, dated 2016)
pIC50: −log10 of the molar value.

How the values were obtained:
[1] = target: T1, cytochrome P450 3A4 isoform (Homo sapiens, UniProt P08684); test: Cytochrome P450 inhibition assay (midazolam hydroxylation); type: in vitro ADME; details: 10 μM test compound; midazolam at approximately its Km; human liver microsomes; 10 µM
T1 construct: pre-incubated with human liver microsomes and NADPH; from tissue; host or cells: human liver microsomes
Method in brief: (§1)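 Percent inhibition of midazolam 1′-hydroxylation by 10 μM compound was measured, midazolam dosed at about Km. Time-dependent inhibition was probed by a 30 min preincubation of compound with human liver microsomes and NADPH ahead of substrate, compared against samples without preincubation.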

OX1 = target: T2, OX1 (Homo sapiens, UniProt O43613); test: Orexin receptor cell-based functional assay, [Ca2+]i by FLIPR, CHO-OX1 cells; details: CHO-OX1 cells, [Ca2+]i by FLIPR, antagonist dose-range 0.1 nM-10 μM, EC90 of OXA; read-out: OX1
T2 construct: expressed in transfected cells; host or cells: CHO (CHO-OX1, kept under selection antibiotic)
T2 sequence (O43613 1-425): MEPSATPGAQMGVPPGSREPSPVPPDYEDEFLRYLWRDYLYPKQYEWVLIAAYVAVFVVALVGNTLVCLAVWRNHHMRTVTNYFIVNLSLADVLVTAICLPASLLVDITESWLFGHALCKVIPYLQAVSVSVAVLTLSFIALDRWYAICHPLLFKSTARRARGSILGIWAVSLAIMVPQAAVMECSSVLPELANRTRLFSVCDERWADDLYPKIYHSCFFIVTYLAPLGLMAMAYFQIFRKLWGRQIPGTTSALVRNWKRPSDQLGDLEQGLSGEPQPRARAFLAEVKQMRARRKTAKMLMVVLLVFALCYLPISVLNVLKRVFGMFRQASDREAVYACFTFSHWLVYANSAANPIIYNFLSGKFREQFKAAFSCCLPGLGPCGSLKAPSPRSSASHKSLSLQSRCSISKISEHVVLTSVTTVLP
Method in brief: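 Antagonist mode FLIPR calcium read in CHO-OX1 and CHO-OX2 lines. Test compounds, dosed 0.1 nM-10 μM, preincubated 30 min after 37° C dye loading with 2.5 mM probenecid (calcium4 for 30 min or calcium6 for 2 h).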

CYP3A4 = target: T3, CYP3A4 (Homo sapiens, UniProt P08684); test: Cytochrome P450 inhibition assay (midazolam hydroxylation); type: in vitro ADME; details: human, human liver microsomes, probe midazolam (hydroxylation to 1′-hydroxymidazolam), 10 μM test compound, midazolam at approximately its Km
T3 construct: pre-incubated with human liver microsomes and NADPH; from tissue; host or cells: human liver microsomes
Method in brief: as §1

OX2 = target: T4, OX2 (Homo sapiens, UniProt O43614); test: Orexin receptor cell-based functional assay, [Ca2+]i by FLIPR, CHO-OX2 cells; details: [Ca2+]i by FLIPR, antagonist dose-range 0.1 nM-10 μM, EC90 of OXA, read-out: OX2
T4 construct: expressed in transfected cells; host or cells: CHO (CHO-OX2, kept under selection antibiotic)
T4 sequence (O43614 1-444): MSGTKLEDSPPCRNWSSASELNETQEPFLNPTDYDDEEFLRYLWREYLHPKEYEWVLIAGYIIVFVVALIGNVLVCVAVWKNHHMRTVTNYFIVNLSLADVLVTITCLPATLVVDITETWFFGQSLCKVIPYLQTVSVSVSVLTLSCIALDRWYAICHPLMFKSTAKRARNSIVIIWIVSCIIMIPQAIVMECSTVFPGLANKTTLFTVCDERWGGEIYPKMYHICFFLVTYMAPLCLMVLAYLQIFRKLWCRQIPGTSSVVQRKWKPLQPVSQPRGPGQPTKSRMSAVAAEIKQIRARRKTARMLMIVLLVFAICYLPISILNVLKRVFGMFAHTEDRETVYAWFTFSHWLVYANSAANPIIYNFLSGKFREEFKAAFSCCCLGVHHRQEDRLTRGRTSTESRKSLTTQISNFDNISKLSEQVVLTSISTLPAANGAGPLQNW
Method: Measurement of [Ca^2+]i using a FLIPR: CHO—OX1 or CHO—OX2 cells are seeded into black-walled clear-base 384-well plates (Costar) at a density of 20,000 cells per well in F12-K medium supplemented with 10% FBS and selection antibiotic (500 ug/ml G418 or 15 ug/ml Blasticidin) and cultured overnight. The cells are incubated with equal volume of calcium4 loading buffer (Molecular Devices, Inc.) containing 2.5 mM probenecid at 37° C. for 30 min, followed by putative OX1 or OX2 receptor antagonists (dose-range 0.1 nM-10 μM) for another 30 min.
The cells are incubated with equal volume of calcium6 loading buffer (Molecular Devices, Inc.) containing 2.5 mM probenecid at 37° C. for 2 h, followed by test compounds (dose-range 0.1 nM-10 μM) for another 30 min.

T1 sequence (P08684 whole entry, canonical isoform): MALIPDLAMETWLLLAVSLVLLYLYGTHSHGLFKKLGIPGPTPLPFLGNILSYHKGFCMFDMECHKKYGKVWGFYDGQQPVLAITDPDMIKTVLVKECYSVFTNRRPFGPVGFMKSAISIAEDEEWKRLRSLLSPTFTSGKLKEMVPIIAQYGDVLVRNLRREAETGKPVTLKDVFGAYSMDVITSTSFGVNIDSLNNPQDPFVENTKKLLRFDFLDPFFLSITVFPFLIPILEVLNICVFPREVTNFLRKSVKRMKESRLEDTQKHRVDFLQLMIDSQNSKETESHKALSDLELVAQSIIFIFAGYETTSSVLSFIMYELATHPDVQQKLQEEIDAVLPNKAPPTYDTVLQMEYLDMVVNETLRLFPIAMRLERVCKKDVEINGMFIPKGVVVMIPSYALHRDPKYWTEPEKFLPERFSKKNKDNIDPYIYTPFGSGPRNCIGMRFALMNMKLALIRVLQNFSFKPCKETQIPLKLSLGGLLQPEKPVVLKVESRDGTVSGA
T3 sequence (P08684 whole entry): as the sequence (P08684 whole entry, canonical isoform) above

% CYP3A4 Inhibition [1]	pIC50 (OX1)	inhibition at 10 µM (CYP3A4)	pIC50 (OX2)	Structure (SMILES)
83%	–	–	–	Cc1nc(C(=O)N2CCC[C@@H](C)[C@H]2CNc2nc3cc(Cl)ccc3o2)c(-c2ccc(F)cc2)s1 [Example A13, ((2S,3R)-2-(((5-Chlorobenzo[d]oxazol-2-yl)amino)methyl)-3-methylpiperidin-1-yl)(5-(4-fluorophenyl)-2-methylthiazol-4-yl)methanone]
50%	–	–	–	Cc1nc(C(=O)N2CCC[C@@H](C)[C@H]2CNc2nc3cc(Cl)ccc3o2)c(-c2ccc(F)cc2)s1 [Example A84, ((2S,3R)-2-(((5-Chlorobenzo[d]oxazol-2-yl)amino)methyl)-3-methylpiperidin-1-yl)(5-(4-fluorophenyl)-2-methylthiazol-4-yl)methanone]
58%	–	–	–	Cc1ccc(-n2nccn2)c(C(=O)N2CCC[C@@H](C)[C@H]2CNc2ncc(F)cc2F)c1 [Example A91, ((2S,3R)-2-(((3,5-Difluoropyridin-2-yl)amino)methyl)-3-methylpiperidin-1-yl)(5-methyl-2-(2H-1,2,3-triazol-2-yl)phenyl)methanone]
91%	–	–	–	Cc1ccc(-n2nccn2)c(C(=O)N2CCC[C@@H](C)[C@H]2CNc2ncc(Cl)cc2F)c1 [Example A92, ((2S,3R)-2-(((5-Chloro-3-fluoropyridin-2-yl)amino)methyl)-3-methylpiperidin-1-yl)(5-methyl-2-(2H-1,2,3-triazol-2-yl)phenyl)methanone]
–	9.00	83%	6.42	Cc1cc(F)cc(C(=O)N2CCC[C@@H](C)[C@H]2CNc2ccc(C(F)(F)F)cn2)c1-c1ncccn1 [Example A342, (5-Fluoro-3-methyl-2-(pyrimidin-2-yl)phenyl)((2S,3R)-3-methyl-2-(((5-(trifluoromethyl)pyridin-2-yl)amino)methyl)piperidin-1-yl)methanone]
–	8.70	75%	5.55	Cc1c(F)ccc(C(=O)N2CCC[C@@H](C)[C@H]2CNc2ccc(C(F)(F)F)cn2)c1-n1nccn1 [Example A344, (4-Fluoro-3-methyl-2-(2H-1,2,3-triazol-2-yl)phenyl)((2S,3R)-3-methyl-2-(((5-(trifluoromethyl)pyridin-2-yl)amino)methyl)piperidin-1-yl)methanone]
–	9.00	60%	< 5.30	Cc1c(F)ccc(C(=O)N2CCC[C@@H](C)[C@H]2CNc2ncc(C(F)(F)F)cn2)c1-n1nccn1 [Example A345, (4-fluoro-3-methyl-2-(2H-1,2,3-triazol-2-yl)phenyl)((2S,3R)-3-methyl-2-(((5-(trifluoromethyl)pyrimidin-2-yl)amino)methyl)piperidin-1-yl)methanone]
–	8.70	35%	< 5.30	Cc1c(F)ccc(C(=O)N2CCC[C@@H](C)[C@H]2CNc2ncc(C(F)(F)F)cn2)c1-c1ncccn1 [Example A347, (4-fluoro-3-methyl-2-(pyrimidin-2-yl)phenyl)((2S,3R)-3-methyl-2-(((5-(trifluoromethyl)pyrimidin-2-yl)amino)methyl)piperidin-1-yl)methanone]
–	8.70	77%	< 5.40	Cc1cc(F)cc(C(=O)N2CCC[C@@H](C)[C@H]2CNc2ccc(C(F)(F)F)cn2)c1-n1nccn1 [Example A348, (5-fluoro-3-methyl-2-(2H-1,2,3-triazol-2-yl)phenyl)((2S,3R)-3-methyl-2-(((5-(trifluoromethyl)pyridin-2-yl)amino)methyl)piperidin-1-yl)methanone]
–	8.70	59%	< 6.00	Cc1cc(F)cc(C(=O)N2CCC[C@@H](C)[C@H]2CNc2ncc(C(F)(F)F)cn2)c1-n1nccn1 [Example A349, (5-fluoro-3-methyl-2-(2H-1,2,3-triazol-2-yl)phenyl)((2S,3R)-3-methyl-2-(((5-(trifluoromethyl)pyrimidin-2-yl)amino)methyl)piperidin-1-yl)methanone]
–	8.40	49%	6.10	Cc1ccc(F)c(C(=O)N2CCC[C@@H](C)[C@H]2CNc2ccc(C(F)(F)F)cn2)c1-c1ncccn1 [Example A354, (6-fluoro-3-methyl-2-(pyrimidin-2-yl)phenyl)((2S,3R)-3-methyl-2-(((5-(trifluoromethyl)pyridin-2-yl)amino)methyl)piperidin-1-yl)methanone]
–	8.70	86%	5.41	Cc1ccc(C(=O)N2CCC[C@@H](C)[C@H]2CNc2ccc(C(F)(F)F)cn2)c(-n2nccn2)c1F [Example A356, (3-Fluoro-4-methyl-2-(2H-1,2,3-triazol-2-yl)phenyl)((2S,3R)-3-methyl-2-(((5-(trifluoromethyl)pyridin-2-yl)amino)methyl)piperidin-1-yl)methanone]
–	8.30	83%	< 5.30	Cc1ccc(C(=O)N2CCC[C@@H](C)[C@H]2CNc2ncc(C(F)(F)F)cn2)c(-n2nccn2)c1F [Example A357, (3-fluoro-4-methyl-2-(2H-1,2,3-triazol-2-yl)phenyl)((2S,3R)-3-methyl-2-(((5-(trifluoromethyl)pyrimidin-2-yl)amino)methyl)piperidin-1-yl)methanone]
–	8.22	52%	< 5.30	Cc1ccc(C(=O)N2CCC[C@@H](C)[C@H]2CNc2ncc(C(F)(F)F)cn2)c(-c2ncccn2)c1F [Example A359, (3-fluoro-4-methyl-2-(pyrimidin-2-yl)phenyl)((2S,3R)-3-methyl-2-(((5-(trifluoromethyl)pyrimidin-2-yl)amino)methyl)piperidin-1-yl)methanone]
–	8.40	60%	5.52	Cc1cc(C(=O)N2CCC[C@@H](C)[C@H]2CNc2ncc(C(F)(F)F)cn2)c(-n2nccn2)cc1F [Example A369, (4-fluoro-5-methyl-2-(2H-1,2,3-triazol-2-yl)phenyl)((2S,3R)-3-methyl-2-(((5-(trifluoromethyl)pyrimidin-2-yl)amino)methyl)piperidin-1-yl)methanone]
–	9.00	83%	6.31	Cc1cc(F)c(-n2nccn2)c(C(=O)N2CCC[C@@H](C)[C@H]2CNc2ccc(C(F)(F)F)cn2)c1 [Example A372, (3-Fluoro-5-methyl-2-(2H-1,2,3-triazol-2-yl)phenyl)((2S,3R)-3-methyl-2-(((5-(trifluoromethyl)pyridin-2-yl)amino)methyl)piperidin-1-yl)methanone]
–	9.00	60%	5.72	Cc1cc(F)c(-n2nccn2)c(C(=O)N2CCC[C@@H](C)[C@H]2CNc2ncc(C(F)(F)F)cn2)c1 [Example A373, (3-fluoro-5-methyl-2-(2H-1,2,3-triazol-2-yl)phenyl)((2S,3R)-3-methyl-2-(((5-(trifluoromethyl)pyrimidin-2-yl)amino)methyl)piperidin-1-yl)methanone]
–	8.10	48%	6.77	Cc1cc(F)c(-c2ncccn2)c(C(=O)N2CCC[C@@H](C)[C@H]2CNc2ncc(C(F)(F)F)cn2)c1 [Example A375, (3-fluoro-5-methyl-2-(pyrimidin-2-yl)phenyl)((2S,3R)-3-methyl-2-(((5-(trifluoromethyl)pyrimidin-2-yl)amino)methyl)piperidin-1-yl)methanone]
